# Test results taken from patent publication USRE48097E1, “Cephem compounds, their production and use” (priority 2015, dated 2020).
# Experiments:
# K. baumanii 4095 = assay: MIC against K. baumanii 4095; format: cell-based; details: Table 2, K. baumanii 4095, OXA-48
# Source text: (§1) Without limitation, the present cephem compounds alone, or in combination with one or more β-lactamase inhibitors, may provide improved antibacterial efficacy, particularly in antibiotic-resistant bacterial strains. It is believed that the present compounds may be structurally different from known compounds and, as a result, may be more basic in nature. It is an advantage that the present compounds may extend the spectrum of effective bacterial compounds, particularly against previously-resistant bacteria (e.g. ESKAPE organisms), and/or gram negative bacteria, without significant side effects. In a preferred embodiment, the present cephem compound may comprise reference compound ceftazidime, which may be used alone, or in combination with one or more β-lactamase inhibitors, such as NXL-104. As shown, the foregoing composition was tested for minimum inhibitory concentration (MIC, μg/mL) against bacteria listed in Tables 2-3.
# C. freundii 2003 = assay: MIC against C. freundii 2003; format: cell-based; details: Table 2, C. freundii 2003, Caz R, IMP S
# Source text: as §1
# K. baumanii 2579 = assay: MIC against K. baumanii 2579; format: cell-based; details: Table 2, K. baumanii 2579, OXA-25
# Source text: as §1
# S. aureus3137 = assay: MIC against S. aureus3137; format: cell-based, S. aureus; details: Table 2, S. aureus3137, MSSA
# Source text: as §1
# E. cloacae 2705 = assay: MIC against E. cloacae 2705; format: cell-based; details: Table 3, E. cloacae 2705, VIM-1, KPC-3type
# Experimental: (§2) As shown, the foregoing composition was tested for minimum inhibitory concentration (MIC, μg/mL) against bacteria listed in Tables 2-3.
# E. coli 2668 = assay: MIC against E. coli 2668; format: cell-based; details: Table 2, E. coli 2668, OXA-48
# Source text: as §1
# S. pneumoniae 2403 = assay: MIC against S. pneumoniae 2403; format: cell-based; details: Table 2, S. pneumoniae 2403, Pen S
# Source text: as §1
# C. freundii 580 = assay: MIC against C. freundii 580; format: cell-based; details: Table 2, C. freundii 580, Caz R, IMP S
# Source text: as §1
# C. freundii 2487 = assay: MIC against C. freundii 2487; format: cell-based; details: Table 2, C. freundii 2487, Caz R, IMP S
# Source text: as §1
# K. pneumoniae 2711 = assay: MIC against K. pneumoniae 2711; format: cell-based; details: Table 3, K. pneumoniae 2711, KPC-3, VIM-1
# Experimental: as §2
# K. pneumoniae 4109 = assay: MIC against K. pneumoniae 4109; format: cell-based; details: Table 2, K. pneumoniae 4109, SHV-1, SHV-12
# Source text: as §1
# K. pneumoniae 4106 = assay: MIC against K. pneumoniae 4106; format: cell-based; details: K. pneumoniae 4106, KPC-3, TEM-1, SHV-12, SHV-141
# Experimental: as §2
# K. pneumoniae 2690 = assay: MIC against K. pneumoniae 2690; format: cell-based; details: Table 3, K. pneumoniae 2690, KPC-2
# Experimental: as §2
# S. pneumoniae 2493 = assay: MIC against S. pneumoniae 2493; format: cell-based; details: Table 2, S. pneumoniae 2493, Pen R
# Source text: as §1
# S. pneumoniae 2492 = assay: MIC against S. pneumoniae 2492; format: cell-based; details: Table 2, S. pneumoniae 2492, Pen R
# Source text: as §1
smiles,measurement,setting,value
"CC(C)(O/N=C(\C(=O)N[C@@H]1C(=O)N2C(C(=O)[O-])=C(C[n+]3ccccc3)CS[C@H]12)c1csc(N)n1)C(=O)O [CAZ, ceftazidime, reference compound]",MIC,K. baumanii 4095; alone,0.50 µg/mL
same,MIC,K. baumanii 4095; in combination with NXL-104,0.50 µg/mL
same,MIC,C. freundii 2003; alone,4.00 µg/mL
same,MIC,C. freundii 2003; in combination with NXL-104,1.00 µg/mL
same,MIC,K. baumanii 2579; alone,>32 µg/mL
same,MIC,K. baumanii 2579; in combination with NXL-104,>32 µg/mL
same,MIC,S. aureus3137; alone,32.00 µg/mL
same,MIC,S. aureus3137; in combination with NXL-104,32.00 µg/mL
same,MIC,E. cloacae 2705; alone,>32 µg/mL
same,MIC,E. cloacae 2705; in combination with NXL-104,>32 µg/mL
same,MIC,E. coli 2668; alone,1.00 µg/mL
same,MIC,E. coli 2668; in combination with NXL-104,0.50 µg/mL
same,MIC,S. pneumoniae 2403; alone,0.12 µg/mL
same,MIC,S. pneumoniae 2403; in combination with NXL-104,0.12 µg/mL
same,MIC,C. freundii 580; alone,8.00 µg/mL
same,MIC,C. freundii 580; in combination with NXL-104,2.00 µg/mL
same,MIC,C. freundii 2487; alone,16.00 µg/mL
same,MIC,C. freundii 2487; in combination with NXL-104,8.00 µg/mL
same,MIC,K. pneumoniae 2711; alone,>32 µg/mL
same,MIC,K. pneumoniae 2711; in combination with NXL-104,2 µg/mL
same,MIC,K. pneumoniae 4109; alone,2.00 µg/mL
same,MIC,K. pneumoniae 4109; in combination with NXL-104,0.50 µg/mL
same,MIC,"K. pneumoniae 4106; Table 2, alone",16.00 µg/mL
same,MIC,"K. pneumoniae 4106; Table 2, in combination with NXL-104",4.00 µg/mL
same,MIC,"K. pneumoniae 4106; Table 3, alone",>32 µg/mL
same,MIC,"K. pneumoniae 4106; Table 3, in combination with NXL-104",8 µg/mL
same,MIC,K. pneumoniae 2690; alone,>32 µg/mL
same,MIC,K. pneumoniae 2690; in combination with NXL-104,4 µg/mL
same,MIC,S. pneumoniae 2493; alone,16.00 µg/mL
same,MIC,S. pneumoniae 2493; in combination with NXL-104,16.00 µg/mL
same,MIC,S. pneumoniae 2492; alone,8.00 µg/mL
same,MIC,S. pneumoniae 2492; in combination with NXL-104,8.00 µg/mL
